Six compounds from patent US20240101602A1, “ANTIMICROBIAL PEPTIDES AND METHOD OF PREVENTING OR TREATING INFECTION BY USING THE SAME” (priority 2020, published 2024) can be followed below.

≈ marks a conversion by molar mass, not a printed value. Where two headings read alike, the source gives them in different places. Residues, ends and D or L forms follow the SMILES beside them. *: point of attachment. Myristoyl = CCCCCCCCCCCCCC(=O)*

Series [1] deals with Xanthomonas campestris pv. campestris strain Xcc17. Briefly: IC50 of bacterial growth (OD600) in rich liquid medium. Conditions: Xcc Xcc17, 24 h, purified peptides. The class given is cell-based. How it is done:
(§1) To measure the antimicrobial activity, single colony grown on an optimal rich agar medium for each bacterium was picked and grew in 3 mL of the same rich liquid medium for 4 to 6 h. The bacterial culture was then diluted in the same medium to give a final concentration of OD600=0.08 and then further diluted […] in the same medium. In each well of a 96-well polystyrene plate, 90 μL of the diluted culture was mixed with 10 μL of the peptide to give a peptide concentration of 0, 2, 10, and 20 μg/mL (final cell concentration is 5×10^5 CFU/mL). OD600 was measured after incubation at an optimal temperature for 24 h. IC50 was determined as the lowest peptide concentration inhibiting 50% of bacterial growth.

In series [2] the test system is Xanthomonas euvesicatoria strain Xvt28. Described as above. The class given is cell-based. The conditions noted are these: Xev Xvt28, 24 h, purified peptides. The procedure: as §1
In series [3] the test system is Escherichia coli strain DH5a. Conditions: Eco DH5α; rich medium, 24 h, purified peptides.
Series [4] has as its system Xanthomonas oryzae pv. oryzae strain Xoo28. Conditions: Xoo Xoo28; rich medium, 24 h, purified peptides.
Series [5] relates to Agrobacterium tumefaciens strain Atu C58C1. Conditions: rich medium, 24 h, purified peptides.
The test system of series [6] is Candida albicans SC5314.
A short description of series [7]: Circular dichroism spectroscopy, secondary structure deconvolution. Conditions: for α-helix content: dissolved in water, structural deconvolution of CD spectra. (In general: Circular dichroism is widely used to follow secondary structure.)
Series [8] relates to Erwinia chrysanthemi. Format: cell-based. How it is done:
(§2) The effect of peptide length on the antimicrobial activity was investigated by deciding the minimal inhibitory concentration (MIC) and minimal bactericidal concentration (MBC) for each peptide against the pathogen with the media and growth conditions of phytopathogenic bacteria and E. coli as described in Table 1. Single bacterial colony grown on an optimal rich agar medium was picked, and each grew in 3 mL of the same rich liquid medium for 4 to 6 h. For experiments carried out in the rich medium, the bacterial broth culture was then diluted in the same medium to give a final concentration of OD600=0.08, and then further diluted 100 folds in the same medium. For experiments carried out in the minimal medium, the bacterial cells were collected from the bacterial liquid culture by centrifugation, re-suspended in an optimal minimal medium to give a final concentration of OD600=0.08, and then further diluted 100 folds in the same minimal medium. Fifty microliters of serially diluted peptides (2-fold the final concentration) were added in a 96-well polystyrene plate with 50 μL of the bacterial culture. […] The plates were incubated at an optimal temperature without shaking. […] MBC was determined as the lowest peptide concentration at which no colonies formed. The experiments were conducted in an optimal minimal medium for each pathogen. The media and growth conditions were described in Tables 2 and 3. MIC and MBC values were determined following the procedures described above. […] Fifty microliters of serially diluted peptides (2-fold the final concentration) were added in a 96-well polystyrene plate with 50 μL of the fungal spore suspension.

The subject of series [9] is Pectobacterium carotovorum subsp. carotovorum. The class given is cell-based. The procedure:
as §2

Series [10] has as its system Botrytis cinerea. Format: cell-based. The procedure:
(§3) The experiments were conducted in an optimal minimal medium for each pathogen. The media and growth conditions were described in Tables 2 and 3. MIC and MBC values were determined following the procedures described above. […] Fifty microliters of serially diluted peptides (2-fold the final concentration) were added in a 96-well polystyrene plate with 50 μL of the fungal spore suspension. […] The plates were incubated at an optimal temperature without shaking. […] MFC was determined as the lowest peptide concentration at which no fungal growth was observed.

In series [11] the test system is Cgl FST02. The class given is cell-based, Colletotricum gloeosporioides. The procedure: as §3
Series [12] concerns bacteria, fungal spores, and fungal mycelia. Format: cell-based. The conditions noted are these: SYTOX Green, crude peptides, room temperature in dark for 2 h.
For series [13], the system named is Pcc. The series can be described thus: In planta pathogen inoculation assay, lesion diameter. Conditions: detached leaves of tomato L390 and leaves of Arabidopsis Col0; final peptide concentration 16 μg/mL; 16 to 28 hours post-inoculation. Format: in vivo, Pectobacterium carotovorum subsp. carotovorum.
Series [14] relates to Bc. The series is described as above. Format: in vivo, Botrytis cinerea. Conditions: detached leaves of tomato L390 and leaves of Arabidopsis Col0; final peptide concentration 16 μg/mL; 47 to 70 hours post-inoculation.
Series [15] concerns Ralstonia solanacearum strain Pss4. Conditions: Rs Pss4; optimal minimal medium, crude peptides (Table 9).
Series [16] has as its system Ralstonia solanacearum strain Pss190. The conditions noted are these: Rs Pss190; optimal minimal medium, crude peptides (Table 9).
The test system of series [17] is Candida albicans 12-99 (fluconazole-resistant).
Series [18] concerns Candida albicans 89 (echinocandin-resistant).
Series [19] deals with Acinetobacter baumannii ATCC 17978.
Series [20] concerns Staphylococcus aureus BCRC 10777.
In series [21] the test system is Staphylococcus epidermidis ATCC 14990.
[22] abbreviates: Candida albicans SC5314, 48 h at 35° C., 0.125 to 64 μg/mL (Table 5).
Setting [23] is: Candida albicans SC5314 (Tables 10, 14).

As a reminder, the IC50 is the concentration that inhibits the measured activity by half. Broadly, the MIC is the least concentration at which growth counts as inhibited. Higher therefore signals a less susceptible organism. WKLLKLLLKLLKLLLKLL [pepA]: the half-inhibitory concentration (IC50) result in [1], in [2], in series [3], in series [4] and in series [5] was “— (“—” indicates no antimicrobial activity being detected at the highest peptide concentration (20 μg/mL) tested in this study.)” each time. Moreover, in series [6] (setting [22]), the minimum inhibitory concentration (MIC) entry is recorded as “— (“—” indicates no antimicrobial activity being detected at the highest peptide concentration (64 μg/mL) tested.)”. Further, in series [7], the α-helix content entry is reported as “over 90%”.
Turning to Ac-WKLLKKLLKLLKKLLKLL-NH2 [pepB], the 50% inhibitory concentration (IC50) entry is “— (“—” indicates no antimicrobial activity being detected at the highest peptide concentration (20 μg/mL) tested in this study.)” in series [1]; 16.7 µg/mL in series [2]; “— (“—” indicates no antimicrobial activity being detected at the highest peptide concentration (20 μg/mL) tested in this study.)” in [3]; “— (“—” indicates no antimicrobial activity being detected at the highest peptide concentration (20 μg/mL) tested in this study.)” in series [4]; “— (“—” indicates no antimicrobial activity being detected at the highest peptide concentration (20 μg/mL) tested in this study.)” in series [5]. Further, the MIC entry in series [6] (setting [22]) is on record as “— (“—” indicates no antimicrobial activity being detected at the highest peptide concentration (64 μg/mL) tested.)”. This compound also returned a α-helix formation in series [7] (10% TFE) of 90%. For the same compound, the α-helix content entry in [7] is “about 25%”.
Take `CCCCCCCCCCCCCC(=O)N[C@@H](Cc1c[nH]c2ccccc12)C(=O)N[C@@H](CCCCN)C(=O)N[C@@H](CCCCN)C(=O)N[C@@H](CC(C)C)C(=O)N[C@@H](CCCCN)C(=O)N[C@@H](CCCCN)C(=O)N[C@@H](CC(C)C)C(=O)N[C@@H](CC(C)C)C(=O)N[C@@H](CCCCN)C(=O)N[C@@H](CCCCN)C(=O)N[C@@H](CC(C)C)C(N)=O` [pepD3M] (Myristoyl-WKKLKKLLKKL-NH2): the MBC/MFC came to 6.0 µg/mL (≈ 3.67 µM) in [8]; 4.0 µg/mL (≈ 2.45 µM) in series [9]; 6.0 µg/mL (≈ 3.67 µM) in series [10]; 14.0 µg/mL (≈ 8.56 µM) in [11]; 12.0 µg/mL (≈ 7.34 µM) in [15]; 14.0 µg/mL (≈ 8.56 µM) in series [16]. The MIC in series [8] was found to be 5.0 µg/mL (≈ 3.06 µM); in series [9], 4.0 µg/mL (≈ 2.45 µM); in series [10], 5.3 µg/mL (≈ 3.24 µM); in series [11], 14.0 µg/mL (≈ 8.56 µM); in series [15], 8.0 µg/mL (≈ 4.89 µM); in series [16], 12.0 µg/mL (≈ 7.34 µM). In addition, the “membranolytic effect on the cell walls of bacteria, fungal spores, and fungal mycelia” value in series [12] was “significant membranolytic effect”. Further, the “disease lesions caused by Pcc” value in series [13] is reported as “significantly reduced disease lesions”. Moreover, the “disease lesions caused by Bc” value in [14] is “significantly reduced disease lesions”.
For `CCCCCCCCCCCCCC(=O)N[C@@H](Cc1c[nH]c2ccccc12)C(=O)N[C@@H](CCCCN)C(=O)N[C@@H](CCCCN)C(=O)N[C@@H](CC(C)C)C(=O)N[C@@H](CCCCN)C(=O)N[C@@H](CCCCN)C(=O)N[C@@H](CC(C)C)C(=O)N[C@@H](CC(C)C)C(=O)N[C@@H](CCCCN)C(=O)N[C@@H](CCCCN)C(=O)N[C@@H](CC(C)C)C(=O)N[C@@H](CCCCN)C(=O)N[C@@H](CCCCN)C(=O)N[C@@H](CC(C)C)C(N)=O` [pepD2M] (Myristoyl-WKKLKKLLKKLKKL-NH2), the MBC/MFC in [8] was found to be 6.0 µg/mL (≈ 2.99 µM); in series [9] it was 4.0 µg/mL (≈ 2 µM); in series [10], 12.0 µg/mL (≈ 5.99 µM); in series [11] (Cgl FST02, optimal minimal medium, crude peptides (Table 9)), 16.0 µg/mL (≈ 7.98 µM); in series [15], 10.0 µg/mL (≈ 4.99 µM); in series [16], 8.0 µg/mL (≈ 3.99 µM). Further, the minimum inhibitory concentration (MIC) in series [8] was found to be 4.0 µg/mL (≈ 2 µM); in series [9], 4.0 µg/mL (≈ 2 µM); in series [6] (setting [23]), 32 µg/mL (≈ 16 µM); in series [17] it was 8 µg/mL (≈ 3.99 µM); in series [18] it was 32 µg/mL (≈ 16 µM); in [15], 8.0 µg/mL (≈ 3.99 µM). Moreover, the MIC in series [16] stood at 8.0 µg/mL (≈ 3.99 µM). The MFC in series [10] stood at 18.7 µg/mL (≈ 9.33 µM); in series [11], 14.0 µg/mL (≈ 6.98 µM); in series [6] (setting [23]), 64 µg/mL (≈ 31.9 µM); in [17] it was 64 µg/mL (≈ 31.9 µM); in [18] it was 64 µg/mL (≈ 31.9 µM). In series [12], the “membranolytic effect on the cell walls of bacteria, fungal spores, and fungal mycelia” value is given as “significant membranolytic effect”. For the same compound, the “disease lesions caused by Pcc” value in series [13] was “significantly reduced disease lesions”. Also, the “disease lesions caused by Bc” value in series [14] is given as “significantly reduced disease lesions”.
For orientation: MBC means the smallest concentration meeting the test's criterion for killing. A lower MBC goes with more potent killing. With `CCCCCCCCCCCCCC(=O)N[C@@H](Cc1c[nH]c2ccccc12)C(=O)N[C@@H](CCCCN)C(=O)N[C@@H](CCCCN)C(=O)N[C@H](C(=O)N[C@@H](CCCCN)C(=O)N[C@@H](CCCCN)C(=O)N[C@H](C(=O)N[C@H](C(=O)N[C@@H](CCCCN)C(=O)N[C@@H](CCCCN)C(=O)N[C@H](C(=O)N[C@@H](CCCCN)C(=O)N[C@@H](CCCCN)C(=O)N[C@H](C(N)=O)C(C)C)C(C)C)C(C)C)C(C)C)C(C)C` [pepV2M] (Myristoyl-WKKVKKVVKKVKKV-NH2), the MBC in [19], in series [20] and in series [21] was 16 µg/mL (≈ 8.27 µM) throughout. In addition, the MIC came out at 8 µg/mL (≈ 4.14 µM) in series [20] and 16 µg/mL (≈ 8.27 µM) in [21].
For the compound `CCCCCCCCCCCCCC(=O)N[C@@H](Cc1c[nH]c2ccccc12)C(=O)N[C@@H](CCCCN)C(=O)N[C@@H](CCCCN)C(=O)N[C@H](C(=O)N[C@@H](CCCCN)C(=O)N[C@@H](CCCCN)C(=O)N[C@@H](CC(C)C)C(=O)N[C@H](C(=O)N[C@@H](CCCCN)C(=O)N[C@@H](CCCCN)C(=O)N[C@@H](CC(C)C)C(N)=O)C(C)C)C(C)C` [pepD3(V)M] (Myristoyl-WKKVKKLVKKL-NH2), the MBC in series [19], in series [20] and in series [21] was 16 µg/mL (≈ 9.95 µM) throughout. The minimum inhibitory concentration (MIC) in series [20] and in series [21] was 16 µg/mL (≈ 9.95 µM) each time.
